Structures are written as SMILES. Activity calls are given as the source filed them. The calls are words filed in the database; no cut-off is given here.

The target in assay [1] is Sucrase-isomaltase, intestinal (Rattus norvegicus) (UniProt P23739). The assay is described as follows: Inhibitory activity against rat alpha-glucosidase; mild activity observed.
The nature of assay [2]: Inhibitory activity against yeast alpha-glucosidase; mild activity observed. Conditions: Saccharomyces cerevisiae.
Assay [3] in a line: Inhibitory activity against yeast alpha-glucosidase; active. Conditions: Saccharomyces cerevisiae.
Assay [4] addresses Sucrase-isomaltase, intestinal (Rattus norvegicus) (UniProt P23739). As to the kind of experiment: Inhibitory activity against rat alpha-glucosidase; moderate activity observed.

Chain of Sucrase-isomaltase, intestinal (Rattus norvegicus) (P23739 1-1013 limits assumed): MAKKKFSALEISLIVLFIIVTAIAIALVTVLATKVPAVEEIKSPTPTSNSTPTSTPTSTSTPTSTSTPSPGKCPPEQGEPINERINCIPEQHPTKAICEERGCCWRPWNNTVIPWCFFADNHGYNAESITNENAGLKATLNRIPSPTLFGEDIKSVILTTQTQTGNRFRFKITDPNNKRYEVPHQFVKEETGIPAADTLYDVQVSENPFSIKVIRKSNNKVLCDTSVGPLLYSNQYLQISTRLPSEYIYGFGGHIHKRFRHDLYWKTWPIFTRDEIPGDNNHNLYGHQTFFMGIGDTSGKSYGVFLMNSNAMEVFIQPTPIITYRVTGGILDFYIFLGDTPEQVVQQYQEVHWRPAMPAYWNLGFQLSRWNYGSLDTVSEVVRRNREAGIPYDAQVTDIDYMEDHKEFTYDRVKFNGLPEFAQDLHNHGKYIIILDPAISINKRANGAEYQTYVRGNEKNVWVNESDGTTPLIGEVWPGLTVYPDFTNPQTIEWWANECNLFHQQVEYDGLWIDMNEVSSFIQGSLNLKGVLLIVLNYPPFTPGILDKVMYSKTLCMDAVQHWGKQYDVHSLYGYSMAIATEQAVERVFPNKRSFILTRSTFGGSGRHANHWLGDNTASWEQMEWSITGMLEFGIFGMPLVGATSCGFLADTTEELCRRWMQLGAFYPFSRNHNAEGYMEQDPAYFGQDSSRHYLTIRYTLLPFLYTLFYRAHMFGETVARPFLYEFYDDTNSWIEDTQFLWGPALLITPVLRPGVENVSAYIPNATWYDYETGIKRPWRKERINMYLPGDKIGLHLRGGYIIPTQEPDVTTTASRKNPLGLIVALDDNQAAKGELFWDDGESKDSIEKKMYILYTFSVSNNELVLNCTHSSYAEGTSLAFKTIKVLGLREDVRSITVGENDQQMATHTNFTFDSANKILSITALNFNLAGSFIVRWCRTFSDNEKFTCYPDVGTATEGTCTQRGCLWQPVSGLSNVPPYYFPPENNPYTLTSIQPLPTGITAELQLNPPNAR
Chain of Sucrase-isomaltase, intestinal (Rattus norvegicus) (P23739 1014-1841 limits assumed): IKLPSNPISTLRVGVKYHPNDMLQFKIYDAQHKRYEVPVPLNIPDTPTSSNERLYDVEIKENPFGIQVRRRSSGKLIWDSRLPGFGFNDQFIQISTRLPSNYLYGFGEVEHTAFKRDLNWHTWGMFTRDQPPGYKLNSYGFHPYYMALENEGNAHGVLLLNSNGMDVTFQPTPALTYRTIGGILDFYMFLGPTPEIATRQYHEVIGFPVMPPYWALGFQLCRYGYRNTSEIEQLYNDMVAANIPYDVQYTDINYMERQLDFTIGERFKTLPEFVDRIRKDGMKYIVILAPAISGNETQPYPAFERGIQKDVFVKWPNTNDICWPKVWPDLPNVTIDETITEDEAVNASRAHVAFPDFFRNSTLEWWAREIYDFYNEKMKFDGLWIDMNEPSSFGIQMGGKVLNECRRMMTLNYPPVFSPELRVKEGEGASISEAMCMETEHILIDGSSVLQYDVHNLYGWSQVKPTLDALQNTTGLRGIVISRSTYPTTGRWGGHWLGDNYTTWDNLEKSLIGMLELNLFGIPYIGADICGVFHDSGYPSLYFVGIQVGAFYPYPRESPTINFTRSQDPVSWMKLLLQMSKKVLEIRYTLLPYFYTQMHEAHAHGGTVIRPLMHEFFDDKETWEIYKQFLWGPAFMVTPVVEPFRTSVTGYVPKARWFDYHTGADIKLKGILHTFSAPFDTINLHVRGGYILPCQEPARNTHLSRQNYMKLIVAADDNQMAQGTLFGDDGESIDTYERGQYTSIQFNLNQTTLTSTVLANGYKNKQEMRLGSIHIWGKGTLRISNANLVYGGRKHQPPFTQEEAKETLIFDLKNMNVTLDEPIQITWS

`COc1cc(O)c2c(c1)C(=O)c1cc(C)cc(O)c1C2=O`: the inhibition result in assay [1] and in assay [2] was “Weak activity” throughout.
Regarding `COc1ccc(/C=C/c2cc(O)cc(O)c2)cc1O`, in assay [3], the inhibition result was “Active”.
For the molecule `COc1ccc(/C=C/c2cc(O)cc(O[C@@H]3C[C@H](CO)[C@@H](O)[C@H](O)[C@H]3O)c2)cc1`, in assay [1], the inhibition result was “Weak activity”.
On to `Cc1cc(=O)c2c(O)cc(O)cc2o1`, for which the inhibition entry in assay [1] and in assay [2] was “Weak activity” in each case.
With `Cc1cc(O)c2c(c1)C(=O)c1cccc(O[C@@H]3C[C@H](CO)[C@@H](O)[C@H](O)[C@H]3O)c1C2=O`, the inhibition entry in assay [4] was “moderate activity observed”. For the same molecule, the inhibition result in assay [3] is “Active”.
For the molecule `COc1cc(O[C@@H]2C[C@H](CO)[C@@H](O)[C@H](O)[C@H]2O)c2c(O)c(C(C)=O)c(C)cc2c1`, the inhibition result in assay [4] is given as “moderate activity observed”. The inhibition entry in assay [3] is “Active”.

Values taken from ChEMBL document CHEMBL1146818, “Yeast and mammalian alpha-glucosidase inhibitory constituents from Himalayan rhubarb Rheum emodi Wall.ex Meisson” (Bioorg Med Chem Lett, 2004).
